The values below come from publication PMC12000511, “Molecular basis for the assembly of the Vps5-Vps17 SNX-BAR proteins with Retromer” (Nature Communications, 2025).

For experiment [1], the target named is T1, mVps29 (Mus musculus, UniProt Q9QZ88).
T1 construct: GST (thrombin site) (N, cleaved yes); made in house; host or cells: E. coli BL21(DE3)
The experiment in a line: ITC, binding to mVps29. The settings on record: ITC 25 °C, pH 7.5; mean of triplicate titrations. The method, then:
(§1) All the bacterial constructs were expressed in BL21(DE3) competent cells using standard isopropyl 1-thio-β-D-galactopyranoside induction or autoinduction method as described previously[39],[72],[73]. To obtain the Retromer trimer complex, the GST-tagged Vps29 and Vps35 co-expressed cell pellet were mixed with His-Vps26 and resuspended in lysis buffer containing 50 mM Tris-HCl pH 7.5, 200 mM NaCl, 5% glycerol, 50 μg/ml benzamidine and DNase I before passed through a Constant System TS-Series cell disruptor. […] For all constructs, the lysate was clarified by centrifugation and the supernatant was loaded onto either Talon® resin (Clonetech) or glutathione sepharose (GE healthcare) for initial purification. To obtain the correct stoichiometry ratio of the Retromer complex, both Talon® resin and glutathione sepharose (GE healthcare) were applied. […] The flow-through containing complex was further purified using size-exclusion chromatography (SEC) equilibrated with a buffer containing 50 mM Tris-HCl pH 7.5, 200 mM NaCl, 2 mM β-ME. […] To avoid the non-specific cleavage by the residual proteases such as thrombin, a tablet of protease inhibitor cocktail was added into the complex mixture. To remove the unbound fractions, the complex mixture was further purified using Superose 6 increase 10/300 GL column using the SEC buffer described above.
(§2) All the proteins used for ITC experiments were prepared in buffer containing 50 mM Tris-HCl pH 7.5, 200 mM NaCl, 2 mM β-ME. […] In all cases, the ITC titration sequence consisted of an initial 0.4 μl (not used in data processing) followed by 12 serial injections of 3.22 μl each with 180 s intervals. The resulting titration data were integrated with Malvern software package by fitting and normalized data to a single-site binding model, yielding the thermodynamic parameters Kd, ∆H, ∆G and −T∆S for all binding experiments. The stoichiometry was refined initially, and if the value was close to 1, then N was set to exactly 1.0 for calculation. Data presented are the mean of triplicate titrations for each experiment.
For orientation: Isothermal titration calorimetry measures the heat released or taken up as one component is titrated into another.

Experiment [2] concerns the target T1, mVps29. As to the kind of experiment: Crystal structure of mVPS29–ctVps5_71–80 peptide complex. The settings on record: 1.7 Å, two molecules in asymmetric unit. As to the method: All crystals were grown by the hanging-drop vapor diffusion method at 20 °C. […] Best quality crystals were obtained by mixing 1 µL of protein with 1 µL of well solution containing 40 mM KH2PO4, 16% PEG8000 and 5% glycerol at room temperature. Crystals grew after 13 days were cryoprotected in reservoir solution with additional 16% glycerol. X-ray diffraction data were carried out at the Australian Synchrotron MX2 beamline at 100 K.
Data collected from the Australian Synchrotron were indexed and integrated by AutoXDS and scaled using Aimless (version 0.7.4)[75]. Both structures were solved by molecular replacement using Phaser (version 2.5.6)[76] with native mVps29 structure as the initial model template. Both structures contain two copies of mVps29 in asymmetric unit with the electron density of peptide clearly visible. The refinement was performed using Phenix (version 1.19.2) with inspection of resulting model in Coot (version 0.8.9.2) guided by Fo–Fc difference maps[77]. Molprobity was used to evaluate the quality geometry of the refined structure. Molecular figures were generated using PyMOL (version 2.5.5) and structural comparison was performed using DALI and Foldseek[79],[80]. Sequence conservation was mapped on the structure with ConSurf server.

For experiment [3], the target named is ctRetromer (Thermochaetoides thermophila, UniProt G0RZB5+G0S709). The experiment in a line: ITC, binding to ctRetromer. Details: species or system Chaetomium thermophilum. The settings on record: ITC 25 °C, pH 7.5, 200 mM NaCl. As to the method: as §1
Sequence of ctRetromer (G0RZB5 entry or part of it): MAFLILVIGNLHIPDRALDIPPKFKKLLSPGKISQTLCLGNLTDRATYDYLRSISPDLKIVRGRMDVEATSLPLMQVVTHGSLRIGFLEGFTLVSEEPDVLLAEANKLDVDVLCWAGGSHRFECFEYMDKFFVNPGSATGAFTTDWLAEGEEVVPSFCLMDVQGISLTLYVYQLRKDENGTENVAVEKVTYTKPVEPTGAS
Sequence of ctRetromer (G0S709 entry or part of it): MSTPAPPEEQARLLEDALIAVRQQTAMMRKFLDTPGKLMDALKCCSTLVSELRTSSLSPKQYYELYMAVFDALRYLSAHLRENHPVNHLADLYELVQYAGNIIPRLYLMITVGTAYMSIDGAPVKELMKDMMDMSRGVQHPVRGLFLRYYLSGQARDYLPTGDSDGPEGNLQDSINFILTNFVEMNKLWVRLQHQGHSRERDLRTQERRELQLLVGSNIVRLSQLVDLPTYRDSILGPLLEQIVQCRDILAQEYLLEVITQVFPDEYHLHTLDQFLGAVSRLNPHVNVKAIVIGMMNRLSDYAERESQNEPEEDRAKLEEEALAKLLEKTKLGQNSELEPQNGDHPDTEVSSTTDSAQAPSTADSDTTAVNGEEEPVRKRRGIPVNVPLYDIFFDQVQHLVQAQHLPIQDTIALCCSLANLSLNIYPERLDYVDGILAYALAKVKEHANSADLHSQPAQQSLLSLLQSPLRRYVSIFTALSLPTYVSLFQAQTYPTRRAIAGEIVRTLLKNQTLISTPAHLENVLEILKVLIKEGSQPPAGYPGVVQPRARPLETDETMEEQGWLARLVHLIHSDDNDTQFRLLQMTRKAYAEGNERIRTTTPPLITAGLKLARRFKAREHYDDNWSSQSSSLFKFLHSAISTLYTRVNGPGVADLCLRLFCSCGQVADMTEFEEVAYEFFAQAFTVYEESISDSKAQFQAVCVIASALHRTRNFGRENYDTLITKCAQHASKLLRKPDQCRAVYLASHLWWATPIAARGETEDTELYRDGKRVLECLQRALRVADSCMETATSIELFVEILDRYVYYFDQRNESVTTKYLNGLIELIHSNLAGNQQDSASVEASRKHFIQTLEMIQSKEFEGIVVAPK
Sequence of ctRetromer (G0S0E6 entry or part of it, further chain): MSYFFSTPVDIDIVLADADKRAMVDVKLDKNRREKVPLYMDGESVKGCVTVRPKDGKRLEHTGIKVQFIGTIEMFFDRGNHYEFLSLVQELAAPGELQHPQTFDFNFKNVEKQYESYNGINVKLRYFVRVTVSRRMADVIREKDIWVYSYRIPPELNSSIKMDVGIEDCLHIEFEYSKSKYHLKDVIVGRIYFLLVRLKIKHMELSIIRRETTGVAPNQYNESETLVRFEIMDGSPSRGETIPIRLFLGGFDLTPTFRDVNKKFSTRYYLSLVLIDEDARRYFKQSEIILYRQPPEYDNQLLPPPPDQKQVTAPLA
In brief, the clarified lysate was loaded onto glutathione sepharose (GE healthcare) and eluted using elution buffer containing 50 mM Tris-HCl pH 7.5, 200 mM NaCl, 5% glycerol, 20 mM glutathione reduced and 50 μg/ml benzamidine. The flow-through was further purified using SEC as the final purification step. To avoid the degradation, the constructs containing N-terminal disordered parts of Vps5 and Vps17 were used in fresh and experiments were finished within 3 days after purification.
as §2

Experiment [4] concerns the target ctVps5 (full length, homodimer) (Chaetomium thermophilum). The experiment in a line: mass photometry; Refeyn OneMP, low ionic strength: 50 mM Tris-HCl pH 7.5, 40 mM NaCl, 2 mM β-ME.
For experiment [5] the target is unchanged. As to the kind of experiment: mass photometry; Refeyn OneMP, 50-100 nM protein, 50 mM Tris-HCl pH 7.5, 200 mM NaCl, 2 mM β-ME; ctRetromer and ctVps5 combined in a 1:1 ratio.

Where no end group is shown, it is not given here.

In experiment [1], DDPLGPLGA [ctVps5_71–80 peptide] gave a ΔG of -5.80 ± 0.10 kcal/mol and a ΔH of -8.00 ± 1.10 kcal/mol. The “binding site on VPS29” value in experiment [2] is “binds to the conserved hydrophobic groove of VPS29”. Besides, in experiment [3], the “binding to ctRetromer” value is reported as “very weak binding”.

Turning to “ctRetromer (Chaetomium thermophilum Retromer trimer of ctVps35, ctVps26 and ctVps29) (complex)”, the stoichiometry N (ctRetromer per ctVps5 dimer) in experiment [4] was 2; in experiment [5], 1.
